Our source for the IC50 values is patent US20260256763A1, “Aromatic Amide Derivative, And Preparation Method Therefor And Use Thereof” (Zhejiang Hisun Pharmaceutical Co., Ltd., priority 2023, published 2026).

The IC50 is the concentration that gives 50% inhibition.

Test [1] addresses T1, recombinant human KIF18A (Homo sapiens, UniProt Q8NI77).
T1 construct: purchased GenScript
Put plainly: Inhibition on KIF18A enzyme activity (ADP-Glo). Type of test: biochemical. Conditions: recombinant human KIF18A 100 nM, ATP 60 μM. As to the method: Inhibition degrees of the compounds of the present invention on recombinant human KIF18A enzyme activity in vitro were determined by the following method. An ADP-Glo™ Kinase Assay kit (article number V9102) from Promega Company was used in this method. Detailed experimental operation can be referred to the instruction of the kit.
The reaction was carried out in a 384-well microplate. The test compound and the recombinant human KIF18A protein (final concentration of 100 nM, entrusted to GenScript for expression) were added into the wells and incubated at room temperature for 20 minutes, and subsequently, ATP solution (component V915A from the ADP-Glo™ Kinase Assay kit, final concentration of 60 μM) was added to the reaction solution and the obtained system was incubated at room temperature for 20 minutes. Subsequently, 5 μL of ADP-Glo Reagent was added to the reaction system and the obtained system was incubated at room temperature for 50 minutes. Then, 10 μL of Kinase Detection Reagent was added to the reaction system, and the obtained system was incubated at room temperature for 30 minutes. After the incubation was ended, a chemiluminiscence intensity value of each well was determined by a microplate reader in a Luminescence mode.
A general note: ADP-Glo first removes unused ATP, then detects ADP through luciferase.

In test [2] the test system is HT-29 cells. Put plainly: Inhibition on HT-29 cell proliferation (CellTiter-Glo). Type of test: cell-based. The note with it: Homo sapiens, HT-29 cells (TP53 R273H mutation), 120 hours. As to the method: Influences of the compounds of the present invention on HT-29 cell proliferation were determined by the following method. HT-29 cells (containing TP53 R273H mutation) were purchased from the Cell Bank of Shanghai Institute of Biochemistry and Cell Biology, Chinese Academy of Sciences, and cultured in a McCOY's 5A culture medium containing 10% fetal bovine serum, 100 U penicillin and 100 μg/mL streptomycin. A cell viability was determined by a CellTiter-Glo® Luminescent Cell Viability Assay kit (Promega, article number G7573).
(§1) An experimental method was operated according to steps in the instruction of the kit, which was briefly described as follows: a test compound was dissolved in DMSO first to prepare a 10 mM stock solution, then the stock solution was diluted with the above McCOY's 5A culture medium to prepare a test sample, and a final concentration of the compound was in a range of 1000 nM-0.015 nM. Cells in a logarithmic growth phase were inoculated into a 96-well cell culture plate at a density of 1000 cells per well, cultured in a 5% CO2 incubator at 37° C. overnight, and then the test compound was added to continuously culture for 120 hours. After the culture was ended, 50 µL of CellTiter-Glo detection solution was added to each well, the plates were shaken for 5 minutes, and then allowed to stand for 10 minutes, and subsequently, a luminous value of each well of sample was read by a microplate reader in a Luminescence mode. By comparing with a numerical value of a control group (0.3% DMSO), a percentage inhibition rate of the compound at each concentration was calculated, and then nonlinear regression analysis was carried out based on concentration logarithm-inhibition rate of the compound in GraphPad Prism 5 software, so as to obtain an IC50 value of the compound in inhibition on cell proliferation, which are shown in Table 2.

Test [3] relates to OVCAR-3 cells. In words: Inhibition on OVCAR-3 cell proliferation (CellTiter-Glo). Type of test: cell-based. The note with it: Homo sapiens, OVCAR-3 cells (TP53 R248Q mutation), 72 hours. As to the method:
Influences of the compounds of the present invention on OVCAR-3 cell proliferation were determined by the following method. OVCAR-3 cells (containing TP53 R248Q mutation) were purchased from the Cell Bank of Shanghai Institute of Biochemistry and Cell Biology, Chinese Academy of Sciences, and cultured in an RPMI 1640 culture medium containing […], 100 U penicillin and 100 μg/mL streptomycin. A cell viability was determined by a CellTiter-Glo® Luminescent Cell Viability Assay kit (Promega, article number G7573).
as §1, with “RPMI 1640” for “McCOY's 5A”, “72” for “120”, “μL” for “µL”, “1.” for “2.”

T1 sequence (Q8NI77 whole entry): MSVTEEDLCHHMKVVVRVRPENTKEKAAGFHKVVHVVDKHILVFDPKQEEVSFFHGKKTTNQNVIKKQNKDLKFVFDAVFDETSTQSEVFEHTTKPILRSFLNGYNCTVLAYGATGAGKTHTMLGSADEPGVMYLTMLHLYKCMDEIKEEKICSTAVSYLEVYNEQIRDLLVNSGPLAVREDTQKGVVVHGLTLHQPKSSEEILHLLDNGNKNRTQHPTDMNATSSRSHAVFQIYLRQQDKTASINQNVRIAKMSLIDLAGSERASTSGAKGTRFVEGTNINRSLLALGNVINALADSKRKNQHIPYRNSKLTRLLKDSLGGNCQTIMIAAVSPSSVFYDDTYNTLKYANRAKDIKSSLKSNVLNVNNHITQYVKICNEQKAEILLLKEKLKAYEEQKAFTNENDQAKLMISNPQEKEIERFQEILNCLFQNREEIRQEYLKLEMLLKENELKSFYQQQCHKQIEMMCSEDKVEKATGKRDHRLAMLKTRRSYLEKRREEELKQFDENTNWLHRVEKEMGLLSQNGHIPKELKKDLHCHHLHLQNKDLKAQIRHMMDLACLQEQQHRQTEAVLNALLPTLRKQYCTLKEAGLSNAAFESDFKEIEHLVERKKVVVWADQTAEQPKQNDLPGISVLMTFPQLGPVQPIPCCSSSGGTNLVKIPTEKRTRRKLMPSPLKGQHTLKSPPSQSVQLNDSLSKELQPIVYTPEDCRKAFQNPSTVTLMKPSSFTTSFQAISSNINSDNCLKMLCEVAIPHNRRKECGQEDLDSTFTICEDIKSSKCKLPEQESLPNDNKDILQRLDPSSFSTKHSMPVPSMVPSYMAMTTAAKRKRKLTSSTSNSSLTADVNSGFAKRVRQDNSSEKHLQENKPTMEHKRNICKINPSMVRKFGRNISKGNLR
T1 sequence (P68363 whole entry partner): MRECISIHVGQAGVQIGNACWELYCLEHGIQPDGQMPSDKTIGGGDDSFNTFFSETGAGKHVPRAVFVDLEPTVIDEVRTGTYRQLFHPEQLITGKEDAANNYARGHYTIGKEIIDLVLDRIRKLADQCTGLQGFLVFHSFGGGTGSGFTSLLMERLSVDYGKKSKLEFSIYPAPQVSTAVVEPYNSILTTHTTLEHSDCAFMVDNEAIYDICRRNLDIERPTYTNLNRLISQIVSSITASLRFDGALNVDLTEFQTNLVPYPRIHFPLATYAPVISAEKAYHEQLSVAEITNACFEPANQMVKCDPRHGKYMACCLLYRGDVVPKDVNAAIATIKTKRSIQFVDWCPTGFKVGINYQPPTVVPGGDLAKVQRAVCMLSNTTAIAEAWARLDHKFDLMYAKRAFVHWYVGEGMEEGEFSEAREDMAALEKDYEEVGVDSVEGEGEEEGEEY
T1 sequence (Q9BVA1 whole entry partner): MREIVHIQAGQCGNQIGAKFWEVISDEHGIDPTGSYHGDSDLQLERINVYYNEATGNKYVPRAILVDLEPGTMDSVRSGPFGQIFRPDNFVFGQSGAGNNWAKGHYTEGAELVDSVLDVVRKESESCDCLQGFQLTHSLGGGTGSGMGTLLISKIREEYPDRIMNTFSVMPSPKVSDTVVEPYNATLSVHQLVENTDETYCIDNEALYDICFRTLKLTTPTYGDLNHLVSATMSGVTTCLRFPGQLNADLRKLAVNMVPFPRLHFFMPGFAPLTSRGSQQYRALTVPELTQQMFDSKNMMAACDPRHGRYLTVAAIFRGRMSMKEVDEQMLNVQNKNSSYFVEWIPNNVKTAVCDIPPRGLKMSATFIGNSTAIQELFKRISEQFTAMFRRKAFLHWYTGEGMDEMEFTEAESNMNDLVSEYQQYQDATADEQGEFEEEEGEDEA

For the molecule `CCS(=O)(=O)Nc1ccc(C(=O)Nc2cc3c(c(N4CCC(F)(F)CC4)c2)C(=O)N(C)C3)c(N2CCC3(CC2)CC3)c1` [Example 2, N-(7-(4,4-difluoropiperidin-1-yl)-2-methyl-1-oxoisoindolin-5-yl)-4-(ethylsulfonamido)-2-(6-azaspiro[2.5]octan-6-yl)benzamide], the IC50 was 142 nM in test [1], 3.9 nM in test [2] and 4.3 nM in test [3]. Taken in the same sequence, the figures for `CCS(=O)(=O)Nc1ccc(C(=O)Nc2cc3c(c(N4CCCCC4)c2)OCC3)c(N2CCC3(CC2)CC3)c1` [Example 3, 4-(ethylsulfonamido)-N-(7-(piperidin-1-yl)-2,3-dihydrobenzofuran-5-yl)-2-(6-azaspiro[2.5]octan-6-yl)benzamide] were 72.5 nM, 6.6 nM and 11.2 nM.

Turning to `CCS(=O)(=O)Nc1ccc(C(=O)Nc2cc3c(c(N4CCC5(CC4)CC5)c2)OCC3)c(N2CCC3(CC2)CC3)c1` [Example 4, N-(7-(6-azaspiro[2.5]octan-6-yl)-2,3-dihydrobenzofuran-5-yl)-4-(ethylsulfonamido)-2-(6-azaspiro[2.5]octan-6-yl)benzamide], the IC50 in test [1] stood at 212 nM. Still for that read-out and setting: with `CCS(=O)(=O)Nc1ccc(C(=O)Nc2cc3c(c(N4CCC(F)(F)C4)c2)OCC3)c(N2CCC3(CC2)CC3)c1` [Example 5, N-(7-(3,3-difluoropyrrolidine-1-yl)-2,3-dihydrobenzofuran-5-yl)-4-(ethylsulfonamido)-2-(6-azaspiro[2.5]octan-6-yl)benzamide] the figure was 134 nM. Take `CCS(=O)(=O)Nc1ccc(C(=O)Nc2cc3c(c(N4CC(F)(F)C4)c2)OCC3)c(N2CCC3(CC2)CC3)c1` [Example 6, N-(7-(3,3-difluoroazetidine-1-yl)-2,3-dihydrobenzofuran-5-yl)-4-(ethylsulfonamido)-2-(6-azaspiro[2.5]octan-6-yl)benzamide]: the values for the IC50 in test [1], in test [2] and in test [3] were 60.9 nM, 10.7 nM and 9.1 nM, respectively. In the same order, the values of `O=C(Nc1cc2c(c(N3CCC(F)(F)CC3)c1)OCC2)c1ccc(NS(=O)(=O)C2CC2)cc1N1CCC2(CC1)CC2` [Example 7, 4-(cyclopropanesulfonamido)-N-(7-(4,4-difluoropyridin-1-yl)-2,3-dihydrobenzofuran-5-yl)-2-(6-azaspiro[2.5]octan-6-yl)benzamide] are 157 nM, 7.8 nM and 11 nM. `CCS(=O)(=O)Nc1ccc(C(=O)Nc2cc3c(c(C4CC4)c2)OCC3)c(N2CCC3(CC2)CC3)c1` [Example 8, N-(7-cyclopropyl-2,3-dihydrobenzofuran-5-yl)-4-(ethylsulfonamido)-2-(6-azaspiro[2.5]octan-6-yl)benzamide]: in test [1], the IC50 stood at 90.6 nM. Regarding `CCS(=O)(=O)Nc1ccc(C(=O)Nc2cc3c(c(CC(C)C)c2)OCC3)c(N2CCC3(CC2)CC3)c1` [Example 10, 4-(ethylsulfonamido)-N-(7-isobutyl-2,3-dihydrobenzofuran-5-yl)-2-(6-azaspiro[2.5]octan-6-yl)benzamide], the IC50 in test [1] was determined as 267 nM. Still for that read-out and setting: with `CCS(=O)(=O)Nc1ccc(C(=O)Nc2cc3c(c(C4(O)CCC(F)(F)CC4)c2)OCC3)c(N2CCC3(CC2)CC3)c1` [Example 11, N-(7-(4,4-difluoro-1-hydroxycyclohexyl)-2,3-dihydrobenzofuran-5-yl)-4-(ethylsulfonamido)-2-(6-azaspiro[2.5]octan-6-yl)benzamide] the figure was 263 nM. On to `O=C(Nc1cc2c(c(C3(O)CCC(F)(F)CC3)c1)OCC2)c1ccc(NS(=O)(=O)C2CC2)cc1N1CCC2(CC1)CC2` [Example 12, 4-(cyclopropanesulfonamido)-N-(7-(4,4-difluoro-1-hydroxycyclohexyl)-2,3-dihydrobenzofuran-5-yl)-2-(6-azaspiro[2.5]octan-6-yl)benzamide], for which, in test [1], the IC50 amounted to 173 nM.

On to `CCS(=O)(=O)Nc1ccc(C(=O)Nc2cc3c(c(N4CCC(F)(F)CC4)c2)OCO3)c(N2CCC3(CC2)CC3)c1` [Example 13, N-(7-(4,4-difluoropiperidin-1-yl)benzo[d][1,3]dioxol-5-yl)-4-(ethylsulfonamido)-2-(6-azaspiro[2.5]octan-6-yl)benzamide], for which the values for the IC50 in test [1], in test [2] and in test [3] were 291 nM, 7.3 nM and 5.5 nM, respectively. Regarding `CCS(=O)(=O)Nc1ccc(C(=O)Nc2cc3c(c(N4CCC(F)(F)CC4)c2)OCCC3)c(N2CCC3(CC2)CC3)c1` [Example 15], the IC50 in test [2] amounted to 23.6 nM; in test [3], 18.4 nM. Regarding `CCS(=O)(=O)Nc1ccc(C(=O)Nc2cc(N3CCC(F)(F)CC3)c3cn(C)nc3c2)c(N2CCC3(CC2)CC3)c1` [Example 17, N-(4-(4,4-difluoropiperidin-1-yl)-2-methyl-2H-indazol-6-yl)-4-(ethylsulfonamido)-2-(6-azaspiro[2.5]octan-6-yl)benzamide], the values for the IC50 in test [1] and in test [3] were 280 nM and 6.6 nM, respectively. Taken in the same sequence, the figures for `CCS(=O)(=O)Nc1ccc(C(=O)Nc2cc(N3CCC(F)(F)CC3)c3cn[nH]c3c2)c(N2CCC3(CC2)CC3)c1` [Example 20, N-(4-(4,4-difluoropiperidin-1-yl)-1H-indazol-6-yl)-4-(ethylsulfonamido)-2-(6-azaspiro[2.5]octan-6-yl)benzamide] were 197 nM and 20.3 nM.

With `CCS(=O)(=O)Nc1ccc(C(=O)Nc2cc(N3CCC(F)(F)CC3)c3oc(C)nc3c2)c(N2CCC3(CC2)CC3)c1` [Example 22, N-(7-(4,4-difluoropiperidin-1-yl)-2-methylbenzo[d]oxazol-5-yl)-4-(ethylsulfonamido)-2-(6-azaspiro[2.5]octan-6-yl)benzamide], the IC50 came out at 98.5 nM in test [1] and 33.2 nM in test [3]. In the same order, the values of `CCS(=O)(=O)Nc1ccc(C(=O)Nc2cc(N3CCC(F)(F)C3)c3nn(C)cc3c2)c(N2CCC3(CC2)CC3)c1` [Example 25, N-(7-(3,3-difluoropyrrolidin-1-yl)-2-methyl-2H-indazol-5-yl)-4-(ethylsulfonamido)-2-(6-azaspiro[2.5]octan-6-yl)benzamide] are 198 nM and 33.6 nM. As to `Cn1cc2cc(NC(=O)c3ccc(NS(=O)(=O)C4CC4)cc3N3CCC4(CC3)CC4)cc(N3CCC(F)(F)CC3)c2n1` [Example 26], the IC50 in test [1] is 256 nM. Consider `CCS(=O)(=O)Nc1ccc(C(=O)Nc2cc3c(c(N4CCOCC4)c2)C(=O)N(C)C3)c(N2CCC3(CC2)CC3)c1` [Example 27, 4-(ethylsulfonamido)-N-(2-methyl-7-morpholino-1-oxoisoindolin-5-yl)-2-(6-azaspiro[2.5]octan-6-yl)benzamide], for which the IC50 was 109 nM in test [1] and 1.96 nM in test [3].
